Measured values: patent US20050112573A1, “Method of detecting toxic substance” (priority 2001, published 2005)

Test system: yeast genes (level of expressed mRNA)
Assay: DNA chip analysis of expressed mRNA of yeast genes after 2 h culture with a toxic chemical substance
Format: cell-based, Saccharomyces cerevisiae S288C
Conditions: for The level of expressed mRNA in the presence of chemical substance/ (ratio to absence of chemical substance): stress protein genes, DNA chip
Experimental: Yeast (Saccharomyces cerevtisiae S288C (α SUC2mal mel gap2 CUP1)) were cultured at 25° C. on YPD medium (yeast extract 1%, polypepton 2%, glucose 2%). One of toxic chemical substances was added to the cell at logarithmic growth phase, and the cell was further cultured for two hours. Cell was cultured without any chemical substance in the same condition, and was used as control. Concentrations of the chemical substances were defined to inhibit the growth of the yeast but not lead to death.
After the completion of cultivation, the culture was centrifuged to collect the cells. To the cells, sodium acetate buffer (50 mM sodium acetate, 10 mM EDTA, 1% SDS) was added, and the mixture was shaken at 65° C. for five minutes, followed by returning to room temperature, and obtaining the supernatant, which procedure was repeated two times. To the supernatant, ½ amount of a solution of phenol/chloroform was added, and the mixture was centrifuged to give a supernatant, which was added with an equal amount of chloroform, and the mixture was centrifuged to give a supernatant. To the supernatant, an equal amount of isopropanol containing 0.3 M sodium acetate was added, and the mixture was allowed to stand at room temperature for 30 minutes, after which the mixture was centrifuged to give a sediment of the whole RNAs. Seventy % ethanol was added to the sediment, and the mixture was again centrifuged to give a sediment, which was then dried and dissolved in water. mRNA was isolated from the whole RNAs as followings. In view of the fact that a poly A chain is attached to the 3′ terminus of mRNA, a polynucleotide having a poly T structure which was immobilized on the surface of latex beads was used to trap the mRNA, and then the mRNA was washed and eluted with spine column (Oligotex-dT30<Super>mRNA Purification Kit, Takara). Reverse transcription of the mRNA was conducted with a reverse transcriptase (Super Script II Reverse Transcriptase; catalogue No. 18064-014, GibcoBRL) using fluorescence-labeled nucleotides to give cDNAs that were introduced with Cy3-dUTP or Cy5-dUTP during the reverse transcription.
The labeled cDNAs were dissolved in TE buffer (10 mM Tris-HCl/1 mM EDTA, pH8.0), and the solution was dropped on the DNA chip containing the whole genes of yeast (DNA Chip Research Inc. Japan) so that the cDNAs were hybridized on the DNA chip at 65° C. for over 12 hours. The fluoresces intensity of the DNA chip was read with a scanner, and the ratio relative to the fluorescence intensity resulting from the absence of chemical substance was estimated as the following, which is shown in Tables 1 to 9: [formula]
In the Tables, “Intensity” indicated in the rightmost column is a value of the level of expressed mRNA of each gene in control cells as divided by the average level of the expressions of the whole genes.

Structure (SMILES): C[S+](C)[O-] [(15), dimethylsulfoxide]
- The level of expressed mRNA in the presence of chemical substance/The level of expressed mRNA in the absence of chemical substance (yeast gene YJL073W): 2.6
- The level of expressed mRNA in the presence of chemical substance/The level of expressed mRNA in the absence of chemical substance (yeast gene YJL089W): 6.4
- The level of expressed mRNA in the presence of chemical substance/ (ratio to absence), gene YJL096W (yeast gene YJL096W, mitochondria-located protein genes, 2 h culture with chemical): 1.0
- The level of expressed mRNA in the presence of chemical substance/The level of expressed mRNA in the absence of chemical substance (yeast gene YJL116C): 1.0
- The level of expressed mRNA in the presence of chemical substance/ (ratio to absence of chemical substance) (yeast gene YJL158C): 1.7
- The level of expressed mRNA in the presence of chemical substance/ (in its absence), gene YJL167W (yeast gene YJL167W, ratio of DNA chip fluorescence intensity to that without chemical substance): 1.6
- The level of expressed mRNA in the presence of chemical substance/ (ratio to absence), gene YJL180C (yeast gene YJL180C, mitochondria-located protein genes, 2 h culture with chemical): 0.6
- The level of expressed mRNA in the presence of chemical substance/ (in its absence), gene YJL216C (yeast gene YJL216C, ratio of DNA chip fluorescence intensity to that without chemical substance): 1.2
- The level of expressed mRNA in the presence of chemical substance/The level of expressed mRNA in the absence of chemical substance (yeast gene YJR004C): 3.2
- The level of expressed mRNA in the presence of chemical substance/The level of expressed mRNA in the absence of chemical substance (yeast gene YJR086W): 2.0
- The level of expressed mRNA in the presence of chemical substance/ (ratio to absence of chemical substance) (yeast gene YJR090C): 1.6
- The level of expressed mRNA in the presence of chemical substance/The level of expressed mRNA in the absence of chemical substance (yeast gene YKL008C): 1.3
- The level of expressed mRNA in the presence of chemical substance/The level of expressed mRNA in the absence of chemical substance (yeast gene YKL013C): 1.2
- The level of expressed mRNA in the presence of chemical substance/The level of expressed mRNA in the absence of chemical substance (yeast gene YKL039W): 3.1
- The level of expressed mRNA in the presence of chemical substance/The level of expressed mRNA in the absence of chemical substance (yeast gene YKL041W): 1.0
- The level of expressed mRNA in the presence of chemical substance/The level of expressed mRNA in the absence of chemical substance (yeast gene YKL096W): 2.3
- The level of expressed mRNA in the presence of chemical substance/The level of expressed mRNA in the absence of chemical substance (yeast gene YKL139W): 1.0
- The level of expressed mRNA in the presence of chemical substance/ (ratio to absence of chemical substance) (yeast gene YKL164C): 1.2
- The level of expressed mRNA in the presence of chemical substance/The level of expressed mRNA in the absence of chemical substance (yeast gene YKL165C): 2.1
- The level of expressed mRNA in the presence of chemical substance/The level of expressed mRNA in the absence of chemical substance (yeast gene YKL193C): 1.2
- The level of expressed mRNA in the presence of chemical substance/ (in its absence), gene YKR009C (yeast gene YKR009C, ratio of DNA chip fluorescence intensity to that without chemical substance): 1.0
- The level of expressed mRNA in the presence of chemical substance/The level of expressed mRNA in the absence of chemical substance (yeast gene YKR014C): 1.4
- The level of expressed mRNA in the presence of chemical substance/ (in its absence), gene YKR034W (yeast gene YKR034W, ratio of DNA chip fluorescence intensity to that without chemical substance): 1.7
- The level of expressed mRNA in the presence of chemical substance/ (ratio to absence of chemical substance) (yeast gene YKR053C): 0.3
- The level of expressed mRNA in the presence of chemical substance/ in its absence, gene YKR058W (yeast gene YKR058W, energy system protein genes, 2 h culture with the chemical, ratio to control without chemical): 0.5
- The level of expressed mRNA in the presence of chemical substance/ (in its absence), gene YLR006C (yeast gene YLR006C, ratio of DNA chip fluorescence intensity to that without chemical substance): 0.9
- The level of expressed mRNA in the presence of chemical substance/ (ratio to absence of chemical substance) (yeast gene YLR006C): 0.9
- The level of expressed mRNA in the presence of chemical substance/The level of expressed mRNA in the absence of chemical substance (yeast gene YLR093C): 0.9
- The level of expressed mRNA in the presence of chemical substance/The level of expressed mRNA in the absence of chemical substance (yeast gene YLR120C): 2.7
- The level of expressed mRNA in the presence of chemical substance/The level of expressed mRNA in the absence of chemical substance (yeast gene YLR136C): 2.1
- The level of expressed mRNA in the presence of chemical substance/The level of expressed mRNA in the absence of chemical substance (yeast gene YLR178C): 2.3
- The level of expressed mRNA in the presence of chemical substance/The level of expressed mRNA in the absence of chemical substance (yeast gene YLR250W): 2.6
- The level of expressed mRNA in the presence of chemical substance/ in its absence, gene YLR295C (yeast gene YLR295C, energy system protein genes, 2 h culture with the chemical, ratio to control without chemical): 0.5
- The level of expressed mRNA in the presence of chemical substance/ (ratio to absence), gene YLR295C (yeast gene YLR295C, mitochondria-located protein genes, 2 h culture with chemical): 0.5
- The level of expressed mRNA in the presence of chemical substance/The level of expressed mRNA in the absence of chemical substance (yeast gene YLR327C): 0.8
- The level of expressed mRNA in the presence of chemical substance/ (in its absence), gene YLR351C (yeast gene YLR351C, ratio of DNA chip fluorescence intensity to that without chemical substance): 1.2
- The level of expressed mRNA in the presence of chemical substance/The level of expressed mRNA in the absence of chemical substance (yeast gene YLR356W): 2.8
- The level of expressed mRNA in the presence of chemical substance/The level of expressed mRNA in the absence of chemical substance (yeast gene YLR362W): 1.3
- The level of expressed mRNA in the presence of chemical substance/ (in its absence), gene YLR375W (yeast gene YLR375W, ratio of DNA chip fluorescence intensity to that without chemical substance): 1.3
- The level of expressed mRNA in the presence of chemical substance/The level of expressed mRNA in the absence of chemical substance (yeast gene YLR391W): 3.9
- The level of expressed mRNA in the presence of chemical substance/The level of expressed mRNA in the absence of chemical substance (yeast gene YLR429W): 1.5
- The level of expressed mRNA in the presence of chemical substance/ in its absence, gene YML129C (yeast gene YML129C, energy system protein genes, 2 h culture with the chemical, ratio to control without chemical): 1.1
- The level of expressed mRNA in the presence of chemical substance/ (ratio to absence), gene YML129C (yeast gene YML129C, mitochondria-located protein genes, 2 h culture with chemical): 1.1
- The level of expressed mRNA in the presence of chemical substance/The level of expressed mRNA in the absence of chemical substance (yeast gene YMR004W): 1.3
- The level of expressed mRNA in the presence of chemical substance/ (ratio to absence), gene YMR023C (yeast gene YMR023C, mitochondria-located protein genes, 2 h culture with chemical): 0.7
- The level of expressed mRNA in the presence of chemical substance/The level of expressed mRNA in the absence of chemical substance (yeast gene YMR094W): 6.6
- The level of expressed mRNA in the presence of chemical substance/The level of expressed mRNA in the absence of chemical substance (yeast gene YMR104C): 2.5
- The level of expressed mRNA in the presence of chemical substance/ (ratio to absence of chemical substance) (yeast gene YMR186W): 1.3
- The level of expressed mRNA in the presence of chemical substance/The level of expressed mRNA in the absence of chemical substance (yeast gene YMR219W): 1.7
- The level of expressed mRNA in the presence of chemical substance/The level of expressed mRNA in the absence of chemical substance (yeast gene YMR226C): 2.0
- The level of expressed mRNA in the presence of chemical substance/ in its absence, gene YMR267W (yeast gene YMR267W, energy system protein genes, 2 h culture with the chemical, ratio to control without chemical): 0.9
- The level of expressed mRNA in the presence of chemical substance/ (ratio to absence), gene YMR267W (yeast gene YMR267W, mitochondria-located protein genes, 2 h culture with chemical): 0.9
- The level of expressed mRNA in the presence of chemical substance/ in its absence, gene YMR267W (yeast gene YMR267W, ratio of DNA chip fluorescence intensity to that without chemical substance): 0.9
- The level of expressed mRNA in the presence of chemical substance/The level of expressed mRNA in the absence of chemical substance (yeast gene YMR275C): 1.7
- The level of expressed mRNA in the presence of chemical substance/The level of expressed mRNA in the absence of chemical substance (yeast gene YMR276W): 3.3
- The level of expressed mRNA in the presence of chemical substance/ (in its absence), gene YMR278W (yeast gene YMR278W, ratio of DNA chip fluorescence intensity to that without chemical substance): 1.8
- The level of expressed mRNA in the presence of chemical substance/ (in its absence), gene YMR293C (yeast gene YMR293C, ratio of DNA chip fluorescence intensity to that without chemical substance): 0.7
